# Like-named read-outs stand apart in the source and are kept apart here.
# Experiments:
# Test in all cases: agar serial dilution MIC
# Format in all cases: cell-based
# [1] = system: Bacillus subtilis (BA SU) 6633
# Protocol: (§1) A stock solution of 7-[2-(4,5-dihydro-5-imino-1,3,4-thiadiazol-2-ylthio)acetamido]cephalosporanic acid as the hydrobromic acid addition salt containing 2,500 μg. of the active moiety is prepared in phosphate buffer. Two fold serial dilutions are prepared with phosphate buffer. One milliliter (ml.) quantities of each dilution are incorporated in 9 ml. seen agar in sterile Petri plates. The hardened surface is innoculated with test organisms using a Steers replicating device. The plates are incubated at 35° C. for 18 hours.
# (§2) The test organisms are Bacillus subtilis (BA SU) 6633; Staphylococcus aureus (ST AU) 6538P, Smith CHP, and 3-180; Mycobacterium smegmatis (MY SM) 10143; Neisseria catarrhalis (NE CA) 8193; Pseudonomas aeruginosa (PS AE) 10145; Escherichia coli (ES CO) 9637, and 920; Escherichia intermedia (ES IN) 65-1; Salmonella paratyphi (SA PA) 11737; Enterobacter aerogenes (EN AE) 13048; Klebsiella pneumoniae (KL PN) 10031; Bordetella bronchiseptica (BO BR) 4617; Proteus vulgaris (PR VU) 6896; and Herellea species (HE SP) 9955. These organisms are grown for 18 hours in Brain heart infusion at 35° C. Prior to use the cultures are diluted 10 fold with the infusion, except in the case of Mycobacterium. The latter is grown in Emerson's broth for 5 days at 28° C. in shaker flasks and used undiluted.
# (§3) A second preparation of 7-[2-(4,5-dihydro-5-imino-1,3,4-thiadiazol-2-ylthio)acetamido]cephalosporanic acid prepared as described in Example 1 is tested as described in Example 2. The minimum inhibitory concentrations obtained are as follows: […]
# [2] = system: Bordetella bronchiseptica (BO BR) 4617; settings: 18 h
# Protocol: as §1, §2, §3
# [3] = system: Enterobacter aerogenes (EN AE) 13048; settings: Klebsiella aerogenes
# Protocol: as §1, §2, §3
# [4] = system: Escherichia coli (ES CO) 920
# Protocol: as §1, §2, §3
# [5] = system: Escherichia coli (ES CO) 9637
# Protocol: as §1, §2, §3
# [6] = system: Escherichia intermedia (ES IN) 65-1; settings: Citrobacter intermedius
# Protocol: as §1, §2, §3
# [7] = system: Herellea species (HE SP) 9955
# Protocol: as §1, §2, §3
# [8] = system: Klebsiella pneumoniae (KL PN) 10031
# Protocol: as §1, §2, §3
# [9] = system: Mycobacterium smegmatis (MY SM) 10143; settings: Mycolicibacterium smegmatis
# Protocol: as §1, §2, §3
# [10] = system: Neisseria catarrhalis (NE CA) 8193
# Protocol: as §1, §2, §3
# [11] = system: Proteus vulgaris (PR VU) 6896
# Protocol: as §1, §2, §3
# [12] = system: Pseudonomas aeruginosa (PS AE) 10145
# Protocol: as §1, §2, §3
# [13] = system: Salmonella paratyphi (SA PA) 11737; settings: Salmonella enterica, 18 h
# Protocol: as §1, §2, §3
# [14] = system: Staphylococcus aureus (ST AU) 3-180; settings: 18 h
# Protocol: as §1, §2, §3
# [15] = system: Staphylococcus aureus (ST AU) 6538P
# Protocol: as §1, §2, §3
# [16] = system: Staphylococcus aureus (ST AU) CHP
# Protocol: as §1, §2, §3
# [17] = system: Staphylococcus aureus (ST AU) Smith
# Protocol: as §1, §2, §3
# [18] = system: Acinetobacter calcoaceticus 9957
# Protocol: as §1, §2
# (§4) Following the procedure of Example 2 but substituting the organisms listed below the same preparation of 7-[2-(4,5-dihydro-5-imino-1,3,4-thiadiazol-2-ylthio)acetamido]cephalosporanic acid (Compound A) as used in Example 3, a third sample of the same compound, prepared as described in Example 1 (Compound B) and 7-[2-(5-acetamido-1,3,4-thiadiazol-2-ylthio)acetamido]cephalosporanic acid (Compound C) are tested to obtain the results shown: […]
# [19] = system: Citrobacter diversus 27156; settings: Citrobacter koseri, Example 4
# Protocol: as §1, §2, §4
# [20] = system: Citrobacter freundii 8090; settings: Example 4
# Protocol: as §1, §2, §4
# [21] = system: Enterobacter cloacae 13047; settings: Example 4
# Protocol: as §1, §2, §4
# [22] = system: Enterobacter havniae 11604; settings: Example 4
# Protocol: as §1, §2, §4
# [23] = system: Klebsiella pneumoniae 13883
# Protocol: as §1, §2, §4
# [24] = system: Serratia liquefaciens 27592; settings: Example 4
# Protocol: as §1, §2, §4
# Serratia rubidae 27593 = settings: Example 4
# Protocol: as §1, §2, §4
# Shigella boydii 9207 = settings: Example 4
# Protocol: as §1, §2, §4
# Shigella flexneri 12025 = settings: Example 4
# Protocol: as §1, §2, §4
# [25] = 18 h, second preparation (Example 3), read-out: minimum inhibitory concentration (MIC)
# [26] = first preparation (Example 2), HBr salt, 35° C., 18 hours, read-out: minimum concentration (MIC) required to completely inhibit growth
# [27] = read-out: minimum concentration (MIC) required to completely inhibit growth
# [28] = second preparation (Example 3), read-out: minimum inhibitory concentration (MIC)
compound,measurement,setting,value
"CC(=O)OCC1=C(C(=O)O)N2C(=O)C(NC(=O)CSc3n[nH]c(=N)s3)C2SC1 (stereo not shown) [7-[2-(4,5-Dihydro-5-Imino-1,3,4-Thiadiazol-2-ylthio)Acetamido]Cephalosporanic Acid]",MIC,[1]; [25],0.122 µg/mL
same,MIC,[1]; [26],0.122 µg/mL
same,MIC,[2]; [27],7.81 µg/mL
same,MIC,[2]; [28],3.9 µg/mL
same,MIC,[3]; [25],> 250 µg/mL
same,MIC,[3]; [26],> 250 µg/mL
same,MIC,[4]; [25],3.9 µg/mL
same,MIC,[4]; [26],15.6 µg/mL
same,MIC,[5]; [25],31.3 µg/mL
same,MIC,[5]; [26],7.81 µg/mL
same,MIC,[6]; [25],> 250 µg/mL
same,MIC,[6]; [26],> 250 µg/mL
same,MIC,[7]; [25],> 250 µg/mL
same,MIC,[7]; [26],> 250 µg/mL
same,MIC,[8]; [25],3.9 µg/mL
same,MIC,[8]; [26],3.9 µg/mL
same,MIC,[9]; [25],> 250 µg/mL
same,MIC,[9]; [26],> 250 µg/mL
same,MIC,[10]; [25],62.5 µg/mL
same,MIC,[10]; [26],31.3 µg/mL
same,MIC,[11]; [25],3.9 µg/mL
same,MIC,[11]; [26],15.6 µg/mL
same,MIC,[12]; [25],> 250 µg/mL
same,MIC,[12]; [26],> 250 µg/mL
same,MIC,[13]; [27],3.9 µg/mL
same,MIC,[13]; read-out: minimum inhibitory concentration (MIC),3.9 µg/mL
same,MIC,[14]; [27],1.95 µg/mL
same,MIC,[14]; [28],3.9 µg/mL
same,MIC,[15]; [25],0.976 µg/mL
same,MIC,[15]; [26],0.488 µg/mL
same,MIC,"[16]; 18 h, read-out: minimum inhibitory concentration (MIC)",1.95 µg/mL
same,MIC,[16]; [26],0.976 µg/mL
same,MIC,[17]; [25],0.488 µg/mL
same,MIC,[17]; [26],0.244 µg/mL
same,MIC,[18],7.81 µg/mL
same,MIC,[19],1.95 µg/mL
same,MIC,[20],> 250 µg/mL
same,MIC,[21],> 250 µg/mL
same,MIC,[22],> 250 µg/mL
same,MIC,"[23]; Klebsiella pneumoniae, 13883, Example 4",7.81 µg/mL
same,MIC,"[23]; Klebsiella pneumoniae, 13883, Example 4, read-out: MIC",15.6 µg/mL
same,MIC,[24],> 250 µg/mL
same,MIC,Serratia rubidae 27593,> 250 µg/mL
same,MIC,Shigella boydii 9207,62.5 µg/mL
same,MIC,Shigella flexneri 12025; listed as A,31.3 µg/mL
same,MIC,Shigella flexneri 12025; listed as B,7.81 µg/mL
